From US20210023030A1 (priority 2018, published 2021)

Assays:
[1] = target: hydroxy-carboxylic acid receptor 2 (HCA2, GPR109A) (Mus musculus, UniProt Q9EP66); conditions: in vivo; cited from earlier work
histone acetylation = conditions: cited from earlier work
NLRP3 inflammasome = NLRP3 inflammasome (Homo sapiens, UniProt Q96P20); conditions: cited from earlier work
[2] = tested on: primary human intestinal organoids; assay type: cell-based; conditions: TNF-α 60 ng/mL, 24 hours
Procedure: 3) The effect of (R)-3-HB and the related SCFA butyrate on the inflammatory response exerted by primary human intestinal organoids upon co-incubation with TNF-α as inflammatory stimulus was measured. Primary human intestinal organoids were cultured for 8 weeks prior to experiments as described in Hannan et al. (2013) Stem Cell Reports.
To induce inflammation, organoids were treated with 60 ng/mL TNF-α alone or in combination with different concentrations of the sodium salts of (R)-3-HB or butyrate for 24 hours. Subsequently, cells were lysed and RNA was isolated using the RNeasy mini kit (Qiagen Ltd, Germany) for synthesis of cDNA. mRNA expression levels of IL-23 was measured by qPCR using the SensiMix SYBR low-ROX kit (Bioline, UK).
Values were normalized versus untreated control and graphs show the difference of mRNA levels measured in organoids treated with TNF-α alone (set as 0) and those treated with TNF-α and butyrate or (R)-3-HB.

HCA2 receptor (gpr109A) = HCA2 receptor (gpr109A) (Mus musculus, UniProt Q9EP66); conditions: read-out: EC50 of binding to HCA2 receptor; cited from earlier work
HCA2 receptor (gpr109A), sequence (Q9EP66 whole entry): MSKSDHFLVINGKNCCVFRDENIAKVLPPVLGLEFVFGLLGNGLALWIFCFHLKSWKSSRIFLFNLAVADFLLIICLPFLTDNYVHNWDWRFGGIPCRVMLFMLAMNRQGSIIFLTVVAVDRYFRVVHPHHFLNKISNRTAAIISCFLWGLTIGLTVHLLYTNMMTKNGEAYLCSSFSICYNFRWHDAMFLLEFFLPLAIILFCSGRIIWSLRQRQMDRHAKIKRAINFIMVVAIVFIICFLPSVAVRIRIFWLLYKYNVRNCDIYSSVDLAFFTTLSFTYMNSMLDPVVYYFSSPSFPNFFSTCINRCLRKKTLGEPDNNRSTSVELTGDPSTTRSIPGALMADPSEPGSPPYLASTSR

[3] = tested on: primary human intestinal organoids; assay type: cell-based
Procedure: (§1) To measure the effect of (R)-3-HB on inflammation of primary human intestinal organoids, healthy large intestine samples of a donor were cultured for 8 weeks in vitro prior to experiments. Method as used in Hannan et al., Stem Cell Reports. Vol. 1, 293-306 Oct. 15, 2013.
2) To induce inflammation, organoids were treated with TNF-α (40 ng/mL) alone or in combination with (R)-3-HB (sodium salts at 10 μM) for 18 hours. Subsequently, cells were lysed and RNA was isolated for cDNA synthesis and mRNA expression levels of a panel of inflammation factors was measured by qPCR.

[4] = tested on: primary human intestinal organoids; assay type: cell-based; conditions: TNFα 40 ng/mL, 10 μM, 18 hours
Procedure: as §1
1) To induce inflammation, organoids were treated with TNFα (40 ng/mL) alone or in combination with butyrate (10 μM), (R)-3-HB (10 μM), or butyrate and (R)-3-HB for 18 hours. Subsequently, cells were lysed and RNA was isolated for cDNA synthesis and measurement of mRNA expression levels of inflammation factors, NF-κB and TNFα, by qPCR.

[5] = TNF-α 40 ng/mL, sodium salt 10 μM, 18 hours

hydroxy-carboxylic acid receptor 2 (HCA2, GPR109A), sequence (Q9EP66 whole entry): as above
NLRP3 inflammasome, sequence (Q96P20 whole entry): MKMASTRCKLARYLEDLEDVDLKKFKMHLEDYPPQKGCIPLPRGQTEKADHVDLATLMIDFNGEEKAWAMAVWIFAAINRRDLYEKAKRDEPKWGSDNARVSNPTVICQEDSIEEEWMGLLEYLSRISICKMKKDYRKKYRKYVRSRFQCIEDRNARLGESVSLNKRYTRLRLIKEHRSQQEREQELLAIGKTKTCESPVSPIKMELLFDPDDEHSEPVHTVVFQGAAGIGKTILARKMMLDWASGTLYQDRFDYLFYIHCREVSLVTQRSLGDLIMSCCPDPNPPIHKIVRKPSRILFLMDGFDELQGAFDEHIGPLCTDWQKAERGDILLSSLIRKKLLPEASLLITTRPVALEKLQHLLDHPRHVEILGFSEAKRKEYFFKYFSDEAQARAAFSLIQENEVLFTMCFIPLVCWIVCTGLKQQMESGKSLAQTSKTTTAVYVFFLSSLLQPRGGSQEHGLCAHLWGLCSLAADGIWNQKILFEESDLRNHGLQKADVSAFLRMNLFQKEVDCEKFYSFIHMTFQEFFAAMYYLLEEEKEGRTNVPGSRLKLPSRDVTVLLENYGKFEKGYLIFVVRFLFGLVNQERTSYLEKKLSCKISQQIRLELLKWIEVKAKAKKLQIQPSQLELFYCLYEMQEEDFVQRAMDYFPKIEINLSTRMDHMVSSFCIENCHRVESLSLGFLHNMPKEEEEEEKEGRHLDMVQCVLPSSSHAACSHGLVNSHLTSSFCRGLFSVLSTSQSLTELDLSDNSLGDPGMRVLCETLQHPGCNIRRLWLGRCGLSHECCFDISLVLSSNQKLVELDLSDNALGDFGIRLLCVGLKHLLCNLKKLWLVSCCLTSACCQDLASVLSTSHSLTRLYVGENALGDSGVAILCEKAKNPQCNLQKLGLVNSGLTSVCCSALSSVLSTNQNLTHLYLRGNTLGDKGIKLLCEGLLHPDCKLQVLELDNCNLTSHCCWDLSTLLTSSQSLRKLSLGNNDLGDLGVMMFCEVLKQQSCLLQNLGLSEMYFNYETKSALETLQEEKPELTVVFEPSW

| SMILES | concentration associated with neuroprotection [1] | concentration that increases histone acetylation in a dose dependent manner (histone acetylation) | concentration that reduced NLRP3 inflammasome activity (NLRP3 inflammasome) | impact on IL-23 expression compared with butyrate ([2]; 10-100 μM) | concentrations effective at reducing expression of IL-23 ([2]; sodium salt) | EC50 (HCA2 receptor (gpr109A)) | IL-1β mRNA expression vs TNF-α alone [3, 5] | IL-6 mRNA expression vs TNF-α alone [3, 5] | IL-10 mRNA expression vs TNF-α alone [3, 5] | IL-23 mRNA expression vs TNF-α alone [3, 5] | NF-κβ mRNA expression vs TNF-α alone [3, 5] | TGF-β1 mRNA expression vs TNF-α alone [3, 5] | TNF-α mRNA expression vs TNF-α alone [3, 5] | effect on pro-inflammatory regulators of IBD compared with butyrate ([3]; data not shown) | effect on protective regulators of intestinal inflammation compared with butyrate ([3]; data not shown) | NF-κB mRNA expression [4] | TNF-α mRNA expression [4] |
| --- | --- | --- | --- | --- | --- | --- | --- | --- | --- | --- | --- | --- | --- | --- | --- | --- | --- |
| CC(O)CC(=O)O (centres unmarked) [3-HB, 3-hydroxybutyric acid] | 600-1,000 μM | 1 to 2 mM | 2 to 10 mM | – | – | – | – | – | – | – | – | – | – | – | – | – | – |
| C[C@@H](O)CC(=O)O [(R)-3-HB, (R)-3-hydroxybutyrate] | – | – | – | greater reducing impact | 10 to 100 µM | 318 µM | decreased | decreased | increased | decreased | decreased | increased | decreased | greater reducing effect than butyrate | greater inducing effect | decreased | decreased |
